Results taken from patent US20210299116A1, “METHODS FOR REDUCING ABNORMAL SCAR FORMATION” (CORNELL UNIVERSITY, priority 2018, published 2021).
Entries after “also recorded” stand apart in the source; their conditions may differ.

Experiments:
[1] = system: smooth muscle actin (SMA) in fibroblasts; assay: TGF-β induced smooth muscle actin (SMA) in fibroblasts (Western blot, immunohistochemistry); type: cell-based; conditions: TGF-β stimulated fibroblasts
Excerpt: Scar contracture is a painful aspect of hypertrophic scarring due to increased SMA in the fibroblasts. During the inflammatory phase of wound healing, the cytokine transforming growth factor β (TGF-β) is secreted and can activate fibroblasts to produce SMA.

HLF cells (fibroblasts) = assay: in vitro gel contraction assay; type: cell-based; conditions: for TGF-β induced fibroblast contracture (gel contraction): TGF-β + RXD, 48 hour incubation
Description: Evaluation of fibroblasts contractility was performed as previously described by […] et al (Bio-protocol 8(18): e3021, 2018). Briefly, HLF cells are resuspended in 1 mg/ml collagen and then pipetted into 24 well plates. Collagen is allowed to solidify for 30 minutes at room temperature. Media (500 μl) is then added to each of the wells and the gels are dissociated from the walls of the well. Gels are treated and allowed to incubate for 48 hours at 37° C. and 5% CO2. After the 48 hour incubation, gels are stained with crystal violet stain in order to better visualize contraction. Images are analyzed using Image J software and the fold change compared to a no cell control is determined.

[2] = system: incisional wound in C57bl/6 mice; assay: rodent incisional wound model, incision sutured with silk imbedded with drug; type: in vivo, mouse
Excerpt: As there are no murine models for hypertrophic or keloid scarring, the inventors relied on a classic rodent incisional wound model consisting of a longitudinal para-vertebral incision 1-2 cm long through the entire thickness of the skin and cutaneous muscle. Wounds (WD) and size matched pieces of dorsal dermis (CTR) were excised and processed for light and polarized light microscopy: fixation, embedding, sectioning and stained with hematoxylin-eosin (inflammatory cells) and Gomori Trichrome (collagen staining), tensile strength measurements and qPCR.
In some experiments, a drug was delivered locally and directly to the wound. In some embodiments, the drug was impregnated in the wound closure material, silk suture. In some experiments, the drug was eluted into the wound during wound healing leading to closure and scar formation. Wound healing was monitored over 14 days.
Wounds (WD) and size matched pieces of dorsal dermis (CTR) were excised and processed for light microscopy: fixation, embedding, sectioning and stained with hematoxylin-eosin (inflammatory cells) and Gomori Trichrome (collagen staining).
Using wild type C57bl/6 mice, wound healing experiments were next performed where the incision was sutured with silk imbedded with ketotifen, a mast cell stabilizer. This way the drug could be delivered continuously and locally during wound healing.

[3] = 14 days post-incision, C57bl/6 mice, ketotifen-impregnated silk vs untreated silk

Row | SMILES | SMA staining of fibroblasts (immunohistochemistry) [1] | abundance of TGF-β induced SMA in fibroblasts (Western blot) [1] | abundance of TGF-β induced SMA in fibroblasts (Western blot) ([1]; listed as Roxadustat) | fibroblast gel contraction, change from control (HLF cells (fibroblasts); RXD added alone, vs control) | TGF-β induced fibroblast contracture (gel contraction) (HLF cells (fibroblasts)) | TGF-β induced fibroblast contracture (gel contraction) (HLF cells (fibroblasts); listed as Roxadustat) | relative abundance of newly synthesized collagen III mRNA in excised wound scar (q-PCR) ([2]; 14-day, drug group compared to untreated) | inflammatory response to the incisional wound (immune cells in H&E stained scar) ([2]; 7 days post-incision, C57bl/6 mice, ketotifen eluted from silk suture vs untreated wound) | scar collagen content (Gomori trichrome stain) [2, 3] | scar width (Gomori trichrome stain) [2, 3] | tensile strength of the scar (peak tension, tensitometry) ([2]; 14 days post-incision, ketotifen-treated vs untreated mice) | newly synthesized collagen III in wound scar (birefringence microscopy) ([2]; ketotifen eluted from suture vs suture alone)
1 | Cc1nc(C(=O)NCC(=O)O)c(O)c2ccc(Oc3ccccc3)cc12 [RXD, N-[(4-hydroxy-1-methyl-7-phenoxyisoquinolin-3-yl)carbonyl]glycine] | inhibited | inhibited | significantly reduces | significant changes | inhibited | significantly reduces | – | – | – | – | – | –
2 | CN1CCC(=C2c3ccccc3CC(=O)c3sccc32)CC1 [ketotifen] | – | – | – | – | – | – | significantly less | lessens the inflammatory response | decreases | significantly less; also recorded: decreases | not affected | less newly synthesized collagen III; also recorded: decreases newly synthesized collagen (III)
